Reference: ChEMBL document CHEMBL3612049, “Design, synthesis and molecular docking of salicylic acid derivatives containing metronidazole as a new class of antimicrobial agents” (Bioorg Med Chem, 2015)
≈ marks a conversion by molar mass, not a printed value.

How the values were obtained:
[1] = tested on: Pseudomonas aeruginosa; experiment: Antimicrobial activity against Pseudomonas aeruginosa ATCC 13525 after 18 hrs by broth microdilution method; assay type: functional; details: ATCC 13525, 18 h
[2] = tested on: Staphylococcus aureus; experiment: Antimicrobial activity against Staphylococcus aureus ATCC 6538 after 18 hrs by broth microdilution method; assay type: functional; details: ATCC 6538, 18 h
[3] = Cytotoxicity against human macrophages after 24 hrs by MTT assay; assay type: cell-based, Macrophage
[4] = Inhibition of Staphylococcus aureus TyrRS expressed in Escherichia coli BL21 using L-[ring-3,5-3H]-tyrosine preincubated for 10 mins by liquid scintillation counting
[5] = Hemolytic activity in human erythrocytes assessed as hemoglobin release after 3 hrs by spectrophotometric analysis; assay type: ADME, cell-based, Erythrocyte; details: read-out: LC50
[6] = tested on: Escherichia coli; experiment: Antimicrobial activity against Escherichia coli ATCC 35218 after 18 hrs by broth microdilution method; assay type: functional; details: ATCC 35218, 18 h
[7] = tested on: Bacillus spizizenii; experiment: Antimicrobial activity against Bacillus subtilis ATCC 6633 after 18 hrs by broth microdilution method; assay type: functional; details: ATCC 6633, 18 h

Compound	MIC [1] [µg/mL]	MIC [2] [µg/mL]	CC50 at 24 h [3] [µM]	IC50 [4] [µM]	HC50 at 3 h [5] [µM]	MIC [6] [µg/mL]	MIC [7] [µg/mL]
Cc1ncc([N+](=O)[O-])n1CCOC(=O)c1ccccc1OCc1ccc(C(C)C)cc1	6.25 (≈ 14.8 µM)	3.13 (≈ 7.39 µM)	272	3.3	> 10	6.25 (≈ 14.8 µM)	3.13 (≈ 7.39 µM)
CC1(C)S[C@@H]2[C@H](NC(=O)Cc3ccccc3)C(=O)N2[C@H]1C(=O)O [PENICILLIN G]	6.25 (≈ 18.7 µM)	0.78 (≈ 2.33 µM)	–	–	–	6.25 (≈ 18.7 µM)	0.78 (≈ 2.33 µM)
O=C(N[C@H](CO)[C@H](O)c1ccc([N+](=O)[O-])cc1)C(Cl)Cl [CHLORAMPHENICOL]	0.78 (≈ 2.41 µM)	1.57 (≈ 4.86 µM)	–	–	–	6.25 (≈ 19.3 µM)	1.57 (≈ 4.86 µM)
Cc1ncc([N+](=O)[O-])n1CCOC(=O)c1ccccc1OCc1cccc(F)c1	50 (≈ 125 µM)	12.5 (≈ 31.3 µM)	124	6.3	> 10	50 (≈ 125 µM)	25 (≈ 62.6 µM)
Cc1ncc([N+](=O)[O-])n1CCOC(=O)c1ccccc1OCc1ccc(Cl)c(F)c1	6.25 (≈ 14.4 µM)	3.13 (≈ 7.21 µM)	180	3.2	> 10	6.25 (≈ 14.4 µM)	3.13 (≈ 7.21 µM)
Cc1ncc([N+](=O)[O-])n1CCOC(=O)c1ccccc1OCc1ccccc1C(F)(F)F	100 (≈ 223 µM)	100 (≈ 223 µM)	233	7.8	> 10	100 (≈ 223 µM)	50 (≈ 111 µM)
Cc1ncc([N+](=O)[O-])n1CCOC(=O)c1ccccc1OCc1ccc(F)cc1	25 (≈ 62.6 µM)	12.5 (≈ 31.3 µM)	157	5.7	> 10	25 (≈ 62.6 µM)	12.5 (≈ 31.3 µM)
Cc1ncc([N+](=O)[O-])n1CCOC(=O)c1ccccc1OCc1cccc(Cl)c1F	6.25 (≈ 14.4 µM)	3.13 (≈ 7.21 µM)	190	2.9	> 10	12.5 (≈ 28.8 µM)	1.57 (≈ 3.62 µM)
Cc1cc(C)cc(COc2ccccc2C(=O)OCCn2c([N+](=O)[O-])cnc2C)c1	12.5 (≈ 30.5 µM)	3.13 (≈ 7.64 µM)	252	3	> 10	6.25 (≈ 15.3 µM)	1.57 (≈ 3.83 µM)
Cc1ncc([N+](=O)[O-])n1CCOC(=O)c1ccccc1OCc1cc(Cl)ccc1Cl	6.25 (≈ 13.9 µM)	1.57 (≈ 3.49 µM)	193	2.7	> 10	3.13 (≈ 6.95 µM)	0.78 (≈ 1.73 µM)
Cc1ncc([N+](=O)[O-])n1CCOC(=O)c1ccccc1OCc1ccc(Br)cc1	12.5 (≈ 27.2 µM)	6.25 (≈ 13.6 µM)	198	4.9	> 10	12.5 (≈ 27.2 µM)	6.25 (≈ 13.6 µM)
Cc1ncc([N+](=O)[O-])n1CCOC(=O)c1ccccc1OCc1c(F)cccc1F	50 (≈ 120 µM)	25 (≈ 59.9 µM)	277	6.9	> 10	50 (≈ 120 µM)	25 (≈ 59.9 µM)
Cc1ncc([N+](=O)[O-])n1CCOC(=O)c1ccccc1OCc1cccc(Cl)c1	12.5 (≈ 30.1 µM)	6.25 (≈ 15 µM)	188	5	> 10	12.5 (≈ 30.1 µM)	6.25 (≈ 15 µM)
Cc1ncc([N+](=O)[O-])n1CCOC(=O)c1ccccc1OCc1c(F)c(F)c(F)c(F)c1F	100 (≈ 212 µM)	50 (≈ 106 µM)	236	8	> 10	100 (≈ 212 µM)	50 (≈ 106 µM)
Cc1ncc([N+](=O)[O-])n1CCOC(=O)c1ccccc1OCc1cccc(C(F)(F)F)c1	100 (≈ 223 µM)	50 (≈ 111 µM)	251	8.3	> 10	100 (≈ 223 µM)	100 (≈ 223 µM)
Cc1ncc([N+](=O)[O-])n1CCOC(=O)c1ccccc1OCc1ccccc1	50 (≈ 131 µM)	12.5 (≈ 32.8 µM)	231	5.6	> 10	25 (≈ 65.6 µM)	12.5 (≈ 32.8 µM)
Cc1ncc([N+](=O)[O-])n1CCOC(=O)c1ccccc1OCc1ccccc1Cl	12.5 (≈ 30.1 µM)	6.25 (≈ 15 µM)	213	4.7	> 10	6.25 (≈ 15 µM)	6.25 (≈ 15 µM)
Cc1ncc([N+](=O)[O-])n1CCOC(=O)c1ccccc1OCc1ccccc1F	50 (≈ 125 µM)	12.5 (≈ 31.3 µM)	155	6.7	> 10	50 (≈ 125 µM)	25 (≈ 62.6 µM)
COc1ccc(COc2ccccc2C(=O)OCCn2c([N+](=O)[O-])cnc2C)cc1	6.25 (≈ 15.2 µM)	1.57 (≈ 3.82 µM)	239	2.9	> 10	6.25 (≈ 15.2 µM)	0.78 (≈ 1.9 µM)
Cc1ncc([N+](=O)[O-])n1CCOC(=O)c1ccccc1OCc1ccc(F)c(F)c1	100 (≈ 240 µM)	25 (≈ 59.9 µM)	256	6	> 10	100 (≈ 240 µM)	50 (≈ 120 µM)
Cc1ncc([N+](=O)[O-])n1CCOC(=O)c1ccccc1OCc1ccc(Cl)cc1	12.5 (≈ 30.1 µM)	6.25 (≈ 15 µM)	168	4.8	> 10	25 (≈ 60.1 µM)	12.5 (≈ 30.1 µM)
Cc1ncc([N+](=O)[O-])n1CCOC(=O)c1ccccc1OCc1ccc(C(F)(F)F)cc1	50 (≈ 111 µM)	25 (≈ 55.6 µM)	242	6.3	> 10	50 (≈ 111 µM)	25 (≈ 55.6 µM)
Cc1ncc([N+](=O)[O-])n1CCOC(=O)c1ccccc1OCc1cc(F)c(F)c(F)c1	50 (≈ 115 µM)	25 (≈ 57.4 µM)	267	6.7	> 10	100 (≈ 230 µM)	25 (≈ 57.4 µM)
Cc1ccc(COc2ccccc2C(=O)OCCn2c([N+](=O)[O-])cnc2C)cc1	12.5 (≈ 31.6 µM)	3.13 (≈ 7.92 µM)	140	4.7	> 10	12.5 (≈ 31.6 µM)	3.13 (≈ 7.92 µM)
Cc1ncc([N+](=O)[O-])n1CCOC(=O)c1ccccc1OCc1ccc(Cl)c(Cl)c1	1.57 (≈ 3.49 µM)	0.39 (≈ 0.866 µM)	188	2.3	> 10	3.13 (≈ 6.95 µM)	0.78 (≈ 1.73 µM)
